Data as given in publication PMC6556873, “Rapid Covalent-Probe Discovery by Electrophile-Fragment Screening” (Journal of the American Chemical Society, 2019).
Read-outs that look alike come from different tables or passages of the source.

Tests used:
in vitro [1] = test: in vitro; parameters: species or system HB2, CCD841; details: human, hek293 cells
in vitro [2] = test: in vitro; parameters: species or system HB2, HEK293; details: human, ccd841 cells
in vitro [3] = test: in vitro; parameters: species or system CCD841, HEK293; details: human, hb2 cells, read-out: HB-2 Cells Viability (%)
NUDT7 = biological target: T1, NUDT7 (Homo sapiens, UniProt P0C024); parameters: Intact protein LC/MS covalent labelling, fragments in pools of five, 200 uM each, 4 °C; details: 24 h, 4 °C, pool of five; 200 µM; covalent
T1 construct: residues 14-235, E. coli, pNIC28-Bsa4, N-terminal His6 tag removed by TEV, construct 26672 Da
T1 sequence (P0C024 14-235): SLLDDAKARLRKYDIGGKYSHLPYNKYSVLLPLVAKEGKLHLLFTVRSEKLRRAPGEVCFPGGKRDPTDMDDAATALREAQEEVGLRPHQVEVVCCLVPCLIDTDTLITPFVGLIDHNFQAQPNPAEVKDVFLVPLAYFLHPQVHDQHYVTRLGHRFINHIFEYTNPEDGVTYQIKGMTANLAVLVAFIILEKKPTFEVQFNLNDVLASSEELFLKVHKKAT
Protocol: (§1) Incubations were performed at 200 μM for each compound and 2 μM of protein (10 μM for BSA) for 24 h at 4 °C with moderate shaking. Incubation buffers varied among proteins (PBS pH 7.4 for QSOX1 and BSA; 10 mM HEPES pH 7.5, 0.3 M NaCl, 0.5 mM TCEP for PCAF, UPS8, and NUDT7; […]; 10 mM Na2HPO4 pH 7.5 100 mM NaCl 5 mM β-mercaptoethanol for NV3CP; 20 mM Na phosphate pH 7.5 for NNMT; […]. The reaction was stopped by quenching with formic acid, 0.4% final concentration. Each protein was incubated with the electrophilic library in pools of five compounds per well. The pool’s composition maximized the difference in mass between fragments in the same well. Incubations were performed with each fragment at 200 μM, for 24 h at 4 °C, to allow the screening of proteins that are not stable for long time periods at higher temperatures. Following incubation, we used intact protein [compound left out] chromatography/mass spectrometry (LC/MS) to identify the fragments and quantify their labeling (Figure 3A). […] There was good agreement between the percent of labeling of NUDT7 by 100 random individual compounds and that obtained in pools of five (R^2=0.78; Figure S6 and Data set 2 in the Supporting Information).

BSA = biological target: T2, BSA (Bos taurus, UniProt P02769); parameters: Intact protein LC/MS covalent labelling, fragments in pools of five, 200 uM each, 4 °C; details: 24 h, 4 °C, pool of five; 200 µM; covalent
T2 construct: gene ALB
T2 sequence (P02769 whole entry, the tested form may be a part): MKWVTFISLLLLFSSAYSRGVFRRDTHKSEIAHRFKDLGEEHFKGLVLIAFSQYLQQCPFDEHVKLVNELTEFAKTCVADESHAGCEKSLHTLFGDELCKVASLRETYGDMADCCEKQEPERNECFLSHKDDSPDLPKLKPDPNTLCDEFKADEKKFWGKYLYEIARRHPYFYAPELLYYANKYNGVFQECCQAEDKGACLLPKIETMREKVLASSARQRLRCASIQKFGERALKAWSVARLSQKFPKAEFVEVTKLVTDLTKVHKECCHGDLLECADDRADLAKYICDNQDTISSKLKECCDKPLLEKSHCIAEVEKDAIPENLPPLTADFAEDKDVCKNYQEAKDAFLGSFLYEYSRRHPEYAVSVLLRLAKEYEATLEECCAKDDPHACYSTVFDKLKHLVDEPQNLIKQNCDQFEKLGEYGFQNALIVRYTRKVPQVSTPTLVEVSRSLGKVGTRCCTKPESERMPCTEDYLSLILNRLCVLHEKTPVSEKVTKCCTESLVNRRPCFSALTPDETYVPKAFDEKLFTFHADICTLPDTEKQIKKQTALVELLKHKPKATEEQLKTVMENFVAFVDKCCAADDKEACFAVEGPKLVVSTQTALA
Protocol: as §1

OTUB2 (OTUB2A) = biological target: T3, OTUB2 (OTUB2A) (Homo sapiens, UniProt Q96DC9); parameters: Intact protein LC/MS covalent labelling, fragments in pools of five, 200 uM each, 4 °C; details: 24 h, 4 °C, pool of five; 200 µM; covalent
T3 construct: full length residues 1-234, E. coli BL21(DE3)-R3, His tag removed by TEV, construct 27312 Da
T3 sequence (Q96DC9 1-234): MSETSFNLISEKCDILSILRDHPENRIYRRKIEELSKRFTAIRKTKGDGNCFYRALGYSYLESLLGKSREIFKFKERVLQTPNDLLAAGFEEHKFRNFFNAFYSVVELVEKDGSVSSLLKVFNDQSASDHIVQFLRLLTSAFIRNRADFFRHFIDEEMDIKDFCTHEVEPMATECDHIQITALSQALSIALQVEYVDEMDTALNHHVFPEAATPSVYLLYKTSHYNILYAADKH
Protocol: as §1

PCAF = biological target: T4, PCAF (Homo sapiens, UniProt Q92831); parameters: Intact protein LC/MS covalent labelling, fragments in pools of five, 200 uM each, 4 °C; details: 24 h, 4 °C, pool of five; 200 µM; covalent
T4 construct: gene KAT2B
T4 sequence (Q92831 whole entry, the tested form may be a part): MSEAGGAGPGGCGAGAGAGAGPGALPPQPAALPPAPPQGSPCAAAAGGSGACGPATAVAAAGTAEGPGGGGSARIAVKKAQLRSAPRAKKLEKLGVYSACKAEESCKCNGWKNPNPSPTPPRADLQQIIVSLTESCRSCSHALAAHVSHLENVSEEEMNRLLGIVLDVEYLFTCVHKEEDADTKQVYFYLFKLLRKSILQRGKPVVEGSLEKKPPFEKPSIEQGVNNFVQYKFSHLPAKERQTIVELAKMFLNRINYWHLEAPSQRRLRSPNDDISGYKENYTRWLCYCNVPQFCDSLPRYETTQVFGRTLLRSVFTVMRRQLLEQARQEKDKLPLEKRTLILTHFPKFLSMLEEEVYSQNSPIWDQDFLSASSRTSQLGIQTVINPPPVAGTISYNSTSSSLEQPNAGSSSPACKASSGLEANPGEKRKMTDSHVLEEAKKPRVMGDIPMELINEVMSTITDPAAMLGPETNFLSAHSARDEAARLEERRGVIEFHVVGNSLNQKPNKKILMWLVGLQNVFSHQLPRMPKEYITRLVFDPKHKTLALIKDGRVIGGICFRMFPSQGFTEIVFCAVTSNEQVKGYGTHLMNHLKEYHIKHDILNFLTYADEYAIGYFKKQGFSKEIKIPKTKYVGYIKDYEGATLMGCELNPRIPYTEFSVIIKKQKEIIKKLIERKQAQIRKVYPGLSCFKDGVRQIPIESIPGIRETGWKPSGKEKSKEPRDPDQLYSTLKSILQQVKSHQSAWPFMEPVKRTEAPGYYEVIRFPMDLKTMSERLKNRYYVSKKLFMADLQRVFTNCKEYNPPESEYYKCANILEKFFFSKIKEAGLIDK
Protocol: as §1

Row | SMILES | NUDT7 (NUDT7) | BSA (BSA) | OTUB2 (OTUB2 (OTUB2A)) | PCAF (PCAF) | viability at 48 h, 10 µM (in vitro [1]) | viability at 48 h, 10 µM (in vitro [2]) | viability at 48 h, 10 µM (in vitro [3])
1 | O=C(CCl)Nc1ccc(Cl)c([N+](=O)[O-])c1 [PCM-0102316] | 0.28 | 0 | 0.36 | 0 | 1.1% | 1% | 0.4%
2 | COc1ccc(N2CCN(C(=O)CCl)CC2)cc1 [PCM-0102254] | 0 | 0 | 0 | 0 | 42.2% | 84.2% | 33.8%
3 | N#CC1(NC(=O)CCl)CCCCCC1 [PCM-0102465] | 0 | 0 | 0 | 0 | 43.5% | 72.3% | 80.7%
4 | CCN(C(=O)CCl)C1CCS(=O)(=O)C1 (centres unmarked) [PCM-0102105] | 0 | 0 | 0 | 0 | 54.9% | 68.1% | 95%
5 | C=CC(=O)N1CCC(N2CCS(=O)(=O)CC2)CC1 [PCM-0102444] | 0 | 0 | 0 | 0 | 93.6% | 109% | 102%
6 | O=C(CCl)NCc1cccc(Cl)c1 [PCM-0102174] | 0 | 0 | 0.25 | 0 | 74.3% | 79.9% | 83.4%
7 | O=C(CCl)Nc1ccc2c(c1)OC1(CCCCC1)O2 [PCM-0102104] | 0.08 | 0 | 0.47 | 0 | 1.4% | 62.1% | 5.9%
8 | CN(C(=O)CCl)C1CCS(=O)(=O)C1 (centres unmarked) [PCM-0102178] | 0 | 0 | 0 | 0 | 31.5% | 72.1% | 56.9%
9 | CC(NC(=O)CCl)C12CC3CC(CC(C3)C1)C2 (centres unmarked) [PCM-0102402] | 0.07 | 0 | 0.24 | 0 | 55.2% | 73.3% | 67.3%
10 | O=C(CCl)Nc1cc(F)ccc1C(=O)O [PCM-0102247] | 0 | 0 | 0 | 0 | 97% | 95.7% | 106%
11 | O=C(CCl)Nc1ccc(Cl)c(Cl)c1 [PCM-0102112] | 0.18 | 0 | 0.3 | 0 | 1.4% | 26% | 2%
12 | Cc1ccc(Cl)cc1NC(=O)CCl [PCM-0102354] | 0 | 0 | 0 | 0 | 9.3% | 44.6% | 16.3%

Now from value to molecule, other results behind:

Row | NUDT7 (NUDT7) | BSA (BSA) | OTUB2 (OTUB2 (OTUB2A)) | PCAF (PCAF) | SMILES | viability at 48 h, 10 µM (in vitro [1]) | viability at 48 h, 10 µM (in vitro [2]) | viability at 48 h, 10 µM (in vitro [3])
13 | 0 | 0 | 0.5 | 0 | Cc1ccc(CNC(=O)CCl)cc1F [PCM-0102959] | 62.6% | 84% | 86.6%
14 | 0.14 | 0 | 0 | 0 | CN(C(=O)CCl)c1ccc([N+](=O)[O-])cc1 [PCM-0102669] | 10.5% | 17.3% | 12.9%
15 | 0.29 | 0 | 0 | 0 | CCN(C(=O)CCl)c1ccc(F)cc1 [PCM-0102900] | 10.3% | 13.6% | 61.2%
16 | 0 | 0 | 0 | 0 | O=C(CCl)N1CCC(c2nc3ccccc3o2)CC1 [PCM-0102920] | 21.4% | 70% | 40.1%
17 | 0 | 0 | 0 | 0 | CC1CN(C(=O)CCl)CC(C)O1 (centres unmarked) [PCM-0102796] | 66.2% | 76.2% | 92.9%
18 | 0.18 | 0 | 0 | 0 | C=CC(=O)N1CCCN(Cc2cn3cc(Cl)ccc3n2)CC1 [PCM-0102565] | 105% | 104% | 106%
19 | 0 | 0 | 0 | 0 | Cl.O=C(CCl)N1CCN(c2cnccn2)CC1 [PCM-0102889] | 94.7% | 97.2% | 88.2%
20 | 0 | 0 | 0.13 | 0 | CCOC(=O)C1CCCCN1C(=O)CCl (centres unmarked) [PCM-0102937] | 71.9% | 89.4% | 90.3%
21 | 0.14 | 0 | 0.06 | 0.23 | CN(C)c1ccc(Cl)cc1NC(=O)CCl [PCM-0102840] | 63.2% | 85.9% | 29.2%
22 | 0.18 | 0 | 0 | 0 | C=CC(=O)Nc1nc2ccccc2s1 [PCM-0102695] | 51.9% | 50.3% | 33.8%
23 | 0.04 | 0 | 0 | 0 | CCC1CCCCN1C(=O)CCl (centres unmarked) [PCM-0102828] | 69.4% | 80.9% | 85.9%
24 | 0.27 | 0.16 | 0.09 | 0 | O=C(CCl)N1CCN(c2ccccc2[N+](=O)[O-])CC1 [PCM-0103016] | 13.4% | 61.4% | 8.7%
25 | 0 | 0 | 0 | 0 | C=CC(=O)N1CCCC(C(C)NC(=O)NC(C)(C)C)C1 (centres unmarked) [PCM-0102723] | 99.2% | 109% | 105%
26 | 0.66 | 0 | 0 | 0 | CC(c1cc2ccccc2o1)N(C)C(=O)CCl (centres unmarked) [PCM-0102971] | 10.1% | 34.1% | 13.3%
27 | 0.19 | 0 | 0 | 0 | CC(c1ccc(F)cc1)N(C)C(=O)CCl (centres unmarked) [PCM-0102783] | 30.3% | 47.8% | 47.3%
28 | 0 | 0 | 0 | 0 | CC(=O)Nc1ccc(NC(=O)CCl)c(C(F)(F)F)c1 [PCM-0102895] | 82% | 91.7% | 97.1%
29 | 0 | 0 | 0 | 0 | C=CC(=O)N1CCN(c2cc(C)nc(C)n2)CC1 [PCM-0102806] | 78.9% | 105% | 101%
